From paper PMC11167047 (Cell Death Discovery, 2024)

Experiments:
Test in all cases: kinome screen (33PanQinase)
Type in all cases: biochemical
[1] = target: T1, EPHA4 (Homo sapiens, UniProt P54764)
T1 construct: purchased Reaction Biology Europe GmbH (formerly ProQinase)
Protocol: (§1) The Kinome Screening was performed by Reaction Biology Europe GmbH (http://reactionbiology.com; Freiburg i. Br., Germany).

[2] = target: T2, GSG2 (Homo sapiens, UniProt Q8TF76)
T2 construct: purchased Reaction Biology Europe GmbH (formerly ProQinase)
T2 sequence (Q8TF76 1-798): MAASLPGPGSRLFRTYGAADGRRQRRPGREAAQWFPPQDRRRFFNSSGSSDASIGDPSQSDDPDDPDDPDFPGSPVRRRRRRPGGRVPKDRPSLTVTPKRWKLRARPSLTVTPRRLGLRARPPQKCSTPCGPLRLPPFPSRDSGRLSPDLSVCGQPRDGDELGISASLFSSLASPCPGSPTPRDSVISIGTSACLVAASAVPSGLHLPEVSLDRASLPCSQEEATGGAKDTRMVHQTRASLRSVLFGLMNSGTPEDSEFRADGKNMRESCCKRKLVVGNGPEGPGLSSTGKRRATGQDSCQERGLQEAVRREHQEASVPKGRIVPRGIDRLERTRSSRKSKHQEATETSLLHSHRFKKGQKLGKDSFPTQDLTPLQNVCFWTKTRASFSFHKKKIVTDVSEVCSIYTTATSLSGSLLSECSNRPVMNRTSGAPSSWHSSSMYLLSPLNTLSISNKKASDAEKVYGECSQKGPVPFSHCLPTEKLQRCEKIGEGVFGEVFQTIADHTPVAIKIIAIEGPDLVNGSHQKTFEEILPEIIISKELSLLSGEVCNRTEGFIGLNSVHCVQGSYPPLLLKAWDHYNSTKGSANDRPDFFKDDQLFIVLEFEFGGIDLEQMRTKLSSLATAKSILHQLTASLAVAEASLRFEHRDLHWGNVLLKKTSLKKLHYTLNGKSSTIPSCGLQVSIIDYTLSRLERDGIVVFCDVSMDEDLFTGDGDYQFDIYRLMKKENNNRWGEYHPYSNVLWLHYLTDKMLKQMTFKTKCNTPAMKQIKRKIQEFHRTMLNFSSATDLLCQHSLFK
Protocol: as §1

[3] = target: T3, NEK9 (Homo sapiens, UniProt Q8TD19)
T3 construct: purchased Reaction Biology Europe GmbH (formerly ProQinase)
T3 sequence (Q8TD19 1-979): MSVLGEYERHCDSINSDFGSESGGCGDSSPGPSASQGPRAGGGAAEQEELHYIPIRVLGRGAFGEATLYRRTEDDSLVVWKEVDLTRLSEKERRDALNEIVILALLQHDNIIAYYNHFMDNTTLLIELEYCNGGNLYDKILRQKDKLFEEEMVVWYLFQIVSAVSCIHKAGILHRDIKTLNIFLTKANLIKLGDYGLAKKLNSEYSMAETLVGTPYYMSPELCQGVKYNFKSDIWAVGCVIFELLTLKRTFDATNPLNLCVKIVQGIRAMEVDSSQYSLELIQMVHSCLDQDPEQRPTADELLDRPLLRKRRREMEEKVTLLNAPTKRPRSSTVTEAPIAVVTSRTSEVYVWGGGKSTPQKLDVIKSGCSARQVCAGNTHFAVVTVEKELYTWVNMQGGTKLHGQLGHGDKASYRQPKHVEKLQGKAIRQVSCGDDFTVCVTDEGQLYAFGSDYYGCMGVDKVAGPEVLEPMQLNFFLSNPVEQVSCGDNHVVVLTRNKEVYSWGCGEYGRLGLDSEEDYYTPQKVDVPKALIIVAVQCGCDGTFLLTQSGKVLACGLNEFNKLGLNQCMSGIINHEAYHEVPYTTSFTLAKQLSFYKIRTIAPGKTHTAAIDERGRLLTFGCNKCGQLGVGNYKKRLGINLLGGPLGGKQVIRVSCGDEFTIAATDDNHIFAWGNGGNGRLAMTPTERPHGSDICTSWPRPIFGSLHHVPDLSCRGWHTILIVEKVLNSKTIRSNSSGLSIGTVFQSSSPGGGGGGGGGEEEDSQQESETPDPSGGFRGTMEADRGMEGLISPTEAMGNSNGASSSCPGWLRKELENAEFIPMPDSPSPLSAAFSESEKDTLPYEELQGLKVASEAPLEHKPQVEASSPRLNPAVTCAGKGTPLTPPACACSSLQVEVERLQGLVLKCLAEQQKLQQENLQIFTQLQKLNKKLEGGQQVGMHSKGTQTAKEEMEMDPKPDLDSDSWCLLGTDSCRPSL
Protocol: as §1

[4] = target: T4, PASK (Homo sapiens, UniProt Q96RG2)
T4 construct: purchased Reaction Biology Europe GmbH (formerly ProQinase)
T4 sequence (Q96RG2 whole entry): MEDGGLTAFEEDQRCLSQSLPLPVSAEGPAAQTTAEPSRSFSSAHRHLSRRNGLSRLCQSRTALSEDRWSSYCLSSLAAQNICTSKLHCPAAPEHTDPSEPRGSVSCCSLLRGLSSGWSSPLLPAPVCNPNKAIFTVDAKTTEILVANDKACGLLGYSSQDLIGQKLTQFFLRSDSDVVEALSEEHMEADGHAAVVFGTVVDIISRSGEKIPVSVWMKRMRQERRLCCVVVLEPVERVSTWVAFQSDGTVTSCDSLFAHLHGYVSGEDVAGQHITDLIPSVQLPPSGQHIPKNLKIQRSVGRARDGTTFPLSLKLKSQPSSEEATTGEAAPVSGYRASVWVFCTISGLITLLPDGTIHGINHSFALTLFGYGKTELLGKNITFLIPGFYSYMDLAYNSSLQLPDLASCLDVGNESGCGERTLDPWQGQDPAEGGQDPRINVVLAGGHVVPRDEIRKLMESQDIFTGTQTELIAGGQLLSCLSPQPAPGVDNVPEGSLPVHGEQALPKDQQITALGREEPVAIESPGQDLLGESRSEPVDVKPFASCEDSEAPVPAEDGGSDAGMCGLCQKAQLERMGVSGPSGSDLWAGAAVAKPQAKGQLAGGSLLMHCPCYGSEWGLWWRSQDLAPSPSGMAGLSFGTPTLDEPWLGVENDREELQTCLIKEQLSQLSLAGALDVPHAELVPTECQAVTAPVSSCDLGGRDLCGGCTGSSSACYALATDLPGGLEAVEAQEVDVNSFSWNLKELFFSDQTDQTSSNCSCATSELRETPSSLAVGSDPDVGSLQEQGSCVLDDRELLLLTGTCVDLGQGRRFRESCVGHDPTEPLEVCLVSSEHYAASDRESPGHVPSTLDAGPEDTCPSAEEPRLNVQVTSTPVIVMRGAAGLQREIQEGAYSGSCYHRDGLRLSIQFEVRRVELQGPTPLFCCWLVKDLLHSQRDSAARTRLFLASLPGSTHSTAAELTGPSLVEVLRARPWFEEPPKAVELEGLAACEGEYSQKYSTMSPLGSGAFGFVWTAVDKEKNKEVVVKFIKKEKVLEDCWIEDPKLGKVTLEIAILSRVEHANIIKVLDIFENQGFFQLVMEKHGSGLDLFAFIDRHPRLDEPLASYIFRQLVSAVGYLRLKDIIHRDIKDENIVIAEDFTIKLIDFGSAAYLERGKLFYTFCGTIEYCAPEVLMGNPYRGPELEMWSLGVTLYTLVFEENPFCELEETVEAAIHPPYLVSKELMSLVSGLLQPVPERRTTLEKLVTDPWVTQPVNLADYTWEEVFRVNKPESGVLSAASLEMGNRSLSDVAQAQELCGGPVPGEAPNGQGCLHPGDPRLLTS
Protocol: as §1

[5] = target: T5, PRKG1 (Homo sapiens, UniProt Q13976)
T5 construct: purchased Reaction Biology Europe GmbH (formerly ProQinase)
T5 sequence (Q13976 1-671): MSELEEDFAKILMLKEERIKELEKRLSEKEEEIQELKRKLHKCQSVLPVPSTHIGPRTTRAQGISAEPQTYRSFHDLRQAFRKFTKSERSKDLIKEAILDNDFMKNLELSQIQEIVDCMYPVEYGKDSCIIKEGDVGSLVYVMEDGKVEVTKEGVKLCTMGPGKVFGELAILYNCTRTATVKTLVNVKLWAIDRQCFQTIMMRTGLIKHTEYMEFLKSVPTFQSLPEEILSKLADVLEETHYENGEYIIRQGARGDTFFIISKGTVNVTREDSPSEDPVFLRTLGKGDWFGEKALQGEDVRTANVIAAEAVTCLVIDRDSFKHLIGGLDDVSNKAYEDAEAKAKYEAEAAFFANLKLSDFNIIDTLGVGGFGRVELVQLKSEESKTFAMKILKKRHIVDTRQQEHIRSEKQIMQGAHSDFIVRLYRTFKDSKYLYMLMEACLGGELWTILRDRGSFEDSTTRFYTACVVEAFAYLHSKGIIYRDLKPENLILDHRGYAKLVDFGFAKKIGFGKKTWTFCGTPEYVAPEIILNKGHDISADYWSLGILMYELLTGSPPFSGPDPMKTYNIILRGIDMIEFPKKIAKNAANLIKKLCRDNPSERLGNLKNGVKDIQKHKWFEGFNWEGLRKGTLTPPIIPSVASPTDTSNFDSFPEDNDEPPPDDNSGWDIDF
Protocol: as §1

[6] = target: T6, TRKB (Homo sapiens, UniProt Q16620)
T6 construct: purchased Reaction Biology Europe GmbH (formerly ProQinase)
T6 sequence (Q16620 32-822): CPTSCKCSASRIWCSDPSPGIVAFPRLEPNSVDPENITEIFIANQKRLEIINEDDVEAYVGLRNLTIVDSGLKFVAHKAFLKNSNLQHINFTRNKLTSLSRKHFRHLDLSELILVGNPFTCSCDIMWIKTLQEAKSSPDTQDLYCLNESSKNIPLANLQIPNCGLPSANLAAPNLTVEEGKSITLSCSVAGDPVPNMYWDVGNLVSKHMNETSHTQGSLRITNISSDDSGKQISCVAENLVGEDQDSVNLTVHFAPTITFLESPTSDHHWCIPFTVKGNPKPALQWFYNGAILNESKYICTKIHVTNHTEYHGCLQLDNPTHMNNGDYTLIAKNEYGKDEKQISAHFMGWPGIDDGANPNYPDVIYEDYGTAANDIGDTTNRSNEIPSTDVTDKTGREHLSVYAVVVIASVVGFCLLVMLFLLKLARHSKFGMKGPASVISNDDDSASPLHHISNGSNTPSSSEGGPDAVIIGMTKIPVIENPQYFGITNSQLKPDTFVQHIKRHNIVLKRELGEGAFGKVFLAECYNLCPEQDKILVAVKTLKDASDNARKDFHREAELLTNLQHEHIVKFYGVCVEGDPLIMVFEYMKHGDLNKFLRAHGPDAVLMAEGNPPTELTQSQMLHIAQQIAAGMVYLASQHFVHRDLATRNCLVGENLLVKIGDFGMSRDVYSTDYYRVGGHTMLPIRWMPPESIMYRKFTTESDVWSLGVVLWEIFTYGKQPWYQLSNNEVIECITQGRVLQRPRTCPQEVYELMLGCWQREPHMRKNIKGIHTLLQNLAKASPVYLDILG
Protocol: as §1

T1 sequence (P54764 20-986): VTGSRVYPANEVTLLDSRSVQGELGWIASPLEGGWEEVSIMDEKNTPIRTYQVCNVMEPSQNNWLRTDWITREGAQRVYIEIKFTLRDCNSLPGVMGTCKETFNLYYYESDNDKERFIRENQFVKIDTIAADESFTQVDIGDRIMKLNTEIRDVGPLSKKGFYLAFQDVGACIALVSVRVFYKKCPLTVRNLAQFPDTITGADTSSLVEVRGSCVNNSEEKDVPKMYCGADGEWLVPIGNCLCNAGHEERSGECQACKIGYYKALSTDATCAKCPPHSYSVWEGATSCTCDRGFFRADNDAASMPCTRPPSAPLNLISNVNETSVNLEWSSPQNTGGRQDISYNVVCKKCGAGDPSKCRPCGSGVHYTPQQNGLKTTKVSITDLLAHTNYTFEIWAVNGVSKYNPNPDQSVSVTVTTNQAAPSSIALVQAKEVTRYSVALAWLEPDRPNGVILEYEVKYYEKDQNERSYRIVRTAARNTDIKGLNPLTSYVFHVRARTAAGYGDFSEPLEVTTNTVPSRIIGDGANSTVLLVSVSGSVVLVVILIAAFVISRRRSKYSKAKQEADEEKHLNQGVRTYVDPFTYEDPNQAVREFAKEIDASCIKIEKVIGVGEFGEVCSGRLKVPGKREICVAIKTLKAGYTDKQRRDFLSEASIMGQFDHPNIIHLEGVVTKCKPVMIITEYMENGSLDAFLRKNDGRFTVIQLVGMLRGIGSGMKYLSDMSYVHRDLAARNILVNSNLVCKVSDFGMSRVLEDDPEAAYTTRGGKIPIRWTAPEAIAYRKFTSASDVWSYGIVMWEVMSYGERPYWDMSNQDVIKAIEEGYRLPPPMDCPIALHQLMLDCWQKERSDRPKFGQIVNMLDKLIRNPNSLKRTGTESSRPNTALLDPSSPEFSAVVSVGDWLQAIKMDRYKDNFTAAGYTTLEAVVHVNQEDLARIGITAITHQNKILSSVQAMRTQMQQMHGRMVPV

Row | Structure (SMILES) | residual kinase activity ([1]; 0.03 µM) | residual kinase activity ([1]; 0.3 µM) | residual kinase activity ([2]; 0.03 µM) | residual kinase activity ([2]; 0.3 µM) | residual kinase activity ([3]; 0.03 µM) | residual kinase activity ([3]; 0.3 µM) | residual kinase activity ([4]; 0.03 µM) | residual kinase activity ([4]; 0.3 µM) | residual kinase activity ([5]; 0.03 µM) | residual kinase activity ([5]; 0.3 µM) | residual kinase activity ([6]; 0.03 µM) | residual kinase activity ([6]; 0.3 µM) | residual kinase activity ([1]; 3 µM) | residual kinase activity ([2]; 3 µM) | residual kinase activity ([3]; 3 µM) | residual kinase activity ([4]; 3 µM) | residual kinase activity ([5]; 3 µM) | residual kinase activity ([6]; 3 µM)
1 | COc1ccnc2[nH]cc(-c3cc(N)nc(N)c3)c12 [meriolin 16] | 105 % of control | 85 % of control | 2 % of control | 0 % of control | 89 % of control | 87 % of control | 82 % of control | 39 % of control | 75 % of control | 30 % of control | 68 % of control | 29 % of control |  |  |  |  |  | 
2 | c1ccc(CNc2cc(-c3c[nH]c4ncccc34)ccn2)cc1 [meriolin 36] |  | 93 % of control |  | 2 % of control |  | 88 % of control |  | 3 % of control |  | 6 % of control |  | 10 % of control | 72 % of control | 0 % of control | 67 % of control | 0 % of control | 1 % of control | 2 % of control
